Experimental data reported in US20090155209A1, “NOVEL MACROCYCLIC INHIBITORS OF HEPATITIS C VIRUS REPLICATION” (priority 2007, published 2009).

Assays:
[1] = molecular target: T1, NS3-NS4 (Hepatitis C virus genotype 1a, UniProt P27958); assay: cell-based; conditions: EC50, NS3-NS4 activity
[2] = molecular target: T1, NS3-NS4; assay: NS3-NS4 activity, IC50 (Example 37, Table 8); type: biochemical

T1 sequence (P27958 1027-1657): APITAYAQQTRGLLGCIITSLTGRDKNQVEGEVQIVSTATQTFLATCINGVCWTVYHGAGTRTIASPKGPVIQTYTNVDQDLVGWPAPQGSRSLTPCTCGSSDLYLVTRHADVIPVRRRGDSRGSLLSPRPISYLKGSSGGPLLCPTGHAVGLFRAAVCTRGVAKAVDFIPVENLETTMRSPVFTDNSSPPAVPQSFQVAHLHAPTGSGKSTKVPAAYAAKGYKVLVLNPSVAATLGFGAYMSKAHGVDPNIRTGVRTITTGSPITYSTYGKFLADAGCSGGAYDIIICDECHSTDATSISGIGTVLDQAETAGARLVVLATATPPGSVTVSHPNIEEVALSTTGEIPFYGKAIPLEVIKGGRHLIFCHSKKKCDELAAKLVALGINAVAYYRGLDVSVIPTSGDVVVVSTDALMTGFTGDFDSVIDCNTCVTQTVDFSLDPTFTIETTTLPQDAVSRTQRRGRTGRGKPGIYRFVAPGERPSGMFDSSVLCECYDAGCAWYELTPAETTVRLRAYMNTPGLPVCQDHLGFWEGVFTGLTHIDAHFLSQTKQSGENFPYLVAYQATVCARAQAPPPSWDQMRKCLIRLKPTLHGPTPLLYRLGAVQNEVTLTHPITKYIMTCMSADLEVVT
T1 sequence (P27958 1658-1711): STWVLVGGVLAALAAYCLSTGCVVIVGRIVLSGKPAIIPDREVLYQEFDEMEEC

CCC(C)(C)OC(=O)N[C@H]1CCOCC/C=C\[C@@H]2C[C@@]2(C(=O)NS(=O)(=O)c2ccc(Cl)cc2)NC(=O)[C@@H]2C[C@@H](OC(=O)N3Cc4cccc(Cl)c4C3)CN2C1=O [Compound 325, (2R,6S,13aS,14aR,16aS,Z)-14a-(4-chlorophenylsulfonylcarbamoyl)-5,16-dioxo-6-(tert-pentyloxycarbonylamino)-2,3,5,6,7,8,10,11,13a,14,14a,15,16,16a-tetradecahydro-1H-cyclopropa[j]pyrrolo[1,2-f][1,6,9]oxadiazacyclopentadecin-2-yl 4-chloroisoindoline-2-carboxylate]
EC50 [1]: < 100 nM
IC50 [2]: < 100 nM

COc1csc(S(=O)(=O)NC(=O)[C@@]23C[C@H]2/C=C\CCCCC[C@H](NC(=O)OC(C)(C)C)C(=O)N2C[C@H](OC(=O)N4Cc5cccc(F)c5C4)C[C@H]2C(=O)N3)c1 [Compound 541]
EC50 [1]: < 100 nM
IC50 [2]: < 100 nM

COc1ccc(S(=O)(=O)NC(=O)[C@@]23C[C@H]2CCCCCCC[C@H](NC(=O)OC(C)(C)C)C(=O)N2C[C@H](OC(=O)N4Cc5cccc(F)c5C4)C[C@H]2C(=O)N3)cn1 [Compound 638]
EC50 [1]: < 100 nM
IC50 [2]: < 100 nM

O=C1N[C@]2(C(=O)NS(=O)(=O)C3CC3)C[C@H]2/C=C\CCCCC[C@H](Nc2nc3c(s2)CCC3)C(=O)N2C[C@H](OC(=O)N3Cc4cccc(F)c4C3)C[C@@H]12 [Compound 206]
EC50 [1]: 100 to 1000 nM
IC50 [2]: < 100 nM

CC(C)(C)OC(=O)N[C@H]1CCCCC/C=C\[C@@H]2C[C@@]2(C(=O)NS(=O)(=O)Cc2cc(F)cc(F)c2)NC(=O)[C@@H]2C[C@@H](OC(=O)N3Cc4cccc(F)c4C3)CN2C1=O [Compound 523]
EC50 [1]: 100 to 1000 nM
IC50 [2]: < 100 nM

Cc1ccc(S(=O)(=O)NC(=O)[C@@]23C[C@H]2/C=C\CCCCC[C@H](NC(=O)OC(C)(C)C)C(=O)N2C[C@H](OC(=O)N4Cc5cccc(F)c5C4)C[C@H]2C(=O)N3)s1 [Compound 538]
EC50 [1]: < 100 nM
IC50 [2]: < 100 nM

CC(C)(C)OC(=O)N[C@H]1CCCCC/C=C\[C@@H]2C[C@@]2(C(=O)NS(=O)(=O)Cc2ccc(Cl)cc2Cl)NC(=O)[C@@H]2C[C@@H](OC(=O)N3Cc4cccc(F)c4C3)CN2C1=O [Compound 524]
EC50 [1]: 100 to 1000 nM
IC50 [2]: < 100 nM

Cc1cc(S(=O)(=O)NC(=O)[C@@]23C[C@H]2/C=C\CCCCC[C@H](NC(=O)OC(C)(C)C)C(=O)N2C[C@H](OC(=O)N4Cc5cccc(F)c5C4)C[C@H]2C(=O)N3)c(C)s1 [Compound 302, (2R,6S,13aS,14aR,16aS,Z)-6-(tert-butoxycarbonylamino)-14a-(2,5-dimethylthiophen-3-ylsulfonylcarbamoyl)-5,16-dioxo-1,2,3,5,6,7,8,9,10,11,13a,14,14a,15,16,16a-hexadecahydrocyclopropa[e]pyrrolo[1,2-a][1,4]diazacyclopentadecin-2-yl 4-fluoroisoindoline-2-carboxylate]
EC50 [1]: < 100 nM
IC50 [2]: < 100 nM

Cc1ccc(ONC(=O)[C@@]23C[C@H]2CCCCCCC[C@H](NC(=O)OC(C)(C)C)C(=O)N2C[C@H](OC(=O)N4Cc5cccc(F)c5C4)C[C@H]2C(=O)N3)cc1 [Compound 808]
EC50 [1]: 1000 to 10000 nM
IC50 [2]: < 100 nM

CC(C)(C)OC(=O)N[C@H]1CCCCC/C=C\[C@@H]2C[C@@]2(C(=O)NS(=O)(=O)c2cc(Cl)ccc2Cl)NC(=O)[C@@H]2C[C@@H](OC(=O)N3Cc4cccc(F)c4C3)CN2C1=O [Compound 316]
EC50 [1]: < 100 nM
IC50 [2]: < 100 nM

O=C1N[C@]2(C(=O)NS(=O)(=O)C3CC3)C[C@H]2/C=C\CCCCC[C@H](Nc2nc(-c3ccc(F)cc3F)cs2)C(=O)N2C[C@H](OC(=O)N3Cc4cccc(F)c4C3)C[C@@H]12 [Compound 219]
EC50 [1]: < 100 nM
IC50 [2]: < 100 nM

O=C1N[C@]2(C(=O)NS(=O)(=O)C3CC3)C[C@H]2/C=C\CCCCC[C@H](Nc2nc(-c3cccnc3)cs2)C(=O)N2C[C@H](OC(=O)N3Cc4cccc(F)c4C3)C[C@@H]12 [Compound 214]
EC50 [1]: < 100 nM
IC50 [2]: < 100 nM

O=C1N[C@]2(C(=O)NS(=O)(=O)C3CC3)C[C@H]2/C=C\CCCCC[C@H](Nc2nc(-c3ccc(F)cn3)cs2)C(=O)N2C[C@H](OC(=O)N3Cc4cccc(F)c4C3)C[C@@H]12 [Compound 225]
EC50 [1]: < 100 nM
IC50 [2]: < 100 nM

O=C1N[C@]2(C(=O)NS(=O)(=O)C3CC3)C[C@H]2/C=C\CCCCC[C@H](Nc2ccc(F)cc2)C(=O)N2C[C@H](OC(=O)N3Cc4cccc(F)c4C3)C[C@@H]12 [Compound 447, (2R,6S,13aS,14aR,16aS,Z)-14a-(cyclopropylsulfonylcarbamoyl)-6-(4-fluorophenylamino)-5,16-dioxo-1,2,3,5,6,7,8,9,10,11,13a,14,14a,15,16,16a-hexadecahydrocyclopropa[e]pyrrolo[1,2-a][1,4]diazacyclopentadecin-2-yl 4-fluoroisoindoline-2-carboxylate]
EC50 [1]: < 100 nM
IC50 [2]: < 100 nM

CC(C)(C)OC(=O)N[C@H]1CCOCC/C=C\[C@@H]2C[C@@]2(C(=O)NS(=O)(=O)c2ccc(Cl)cc2)NC(=O)[C@@H]2C[C@@H](OC(=O)N3Cc4cccc(Cl)c4C3)CN2C1=O [Compound 324, (2R,6S,13aS,14aR,16aSZ)-6-(tert-butoxycarbonylamino)-14a-(4-chlorophenylsulfonylcarbamoyl)-5,16-dioxo-2,3,5,6,7,8,10,11,13a,14,14a,15,16,16a-tetradecahydro-1H-cyclopropa[j]pyrrolo[1,2-f][1,6,9]oxadiazacyclopentadecin-2-yl 4-chloroisoindoline-2-carboxylate]
EC50 [1]: < 100 nM
IC50 [2]: < 100 nM

Cc1ccc(C)c(ONC(=O)[C@@]23C[C@H]2/C=C\CCCCC[C@H](NC(=O)OC(C)(C)C)C(=O)N2C[C@H](OC(=O)N4Cc5cccc(F)c5C4)C[C@H]2C(=O)N3)c1 [Compound 713]
EC50 [1]: 1000 to 10000 nM
IC50 [2]: < 100 nM

CC(C)(C)OC(=O)N[C@H]1CCCCC/C=C\[C@@H]2C[C@@]2(C(=O)NS(=O)(=O)c2c(F)cccc2F)NC(=O)[C@@H]2C[C@@H](OC(=O)N3CCc4ccccc4C3)CN2C1=O [Compound 363]
EC50 [1]: 1000 to 10000 nM
IC50 [2]: < 100 nM

Cc1cccc(ONC(=O)[C@@]23C[C@H]2/C=C\CCCCC[C@H](NC(=O)OC(C)(C)C)C(=O)N2C[C@H](OC(=O)N4Cc5cccc(F)c5C4)C[C@H]2C(=O)N3)c1C [Compound 712]
EC50 [1]: 1000 to 10000 nM
IC50 [2]: < 100 nM

O=C1N[C@]2(C(=O)NS(=O)(=O)C3CC3)C[C@H]2/C=C\CCCCC[C@H](Nc2nc(-c3ccc(OC(F)(F)F)cc3)cs2)C(=O)N2C[C@H](OC(=O)N3Cc4cccc(F)c4C3)C[C@@H]12 [Compound 222]
EC50 [1]: < 100 nM
IC50 [2]: < 100 nM

CC(C)(C)OC(=O)N[C@H]1CCCCC/C=C\[C@@H]2C[C@@]2(C(=O)NS(=O)(=O)c2ccccc2C(F)(F)F)NC(=O)[C@@H]2C[C@@H](OC(=O)N3Cc4cccc(F)c4C3)CN2C1=O [Compound 345]
EC50 [1]: < 100 nM
IC50 [2]: < 100 nM

O=C1N[C@]2(C(=O)NS(=O)(=O)C3CC3)C[C@H]2/C=C\CCCCC[C@H](Nc2nc(-c3ccccn3)cs2)C(=O)N2C[C@H](OC(=O)N3Cc4cccc(F)c4C3)C[C@@H]12 [Compound 212]
EC50 [1]: < 100 nM
IC50 [2]: < 100 nM

O=C(N[C@H]1CCCCC/C=C\[C@@H]2C[C@@]2(C(=O)NS(=O)(=O)c2ccc(Cl)cc2)NC(=O)[C@@H]2C[C@@H](OC(=O)N3Cc4cccc(F)c4C3)CN2C1=O)OC1CCC1 [Compound 339]
EC50 [1]: < 100 nM
IC50 [2]: < 100 nM

O=C1N[C@]2(C(=O)NS(=O)(=O)C3CC3)C[C@H]2/C=C\CCCCC[C@H](Nc2nc(-c3ccc(F)cn3)cs2)C(=O)N2C[C@H](OC(=O)N3CCc4ccccc4C3)C[C@@H]12 [Compound 229]
EC50 [1]: < 100 nM
IC50 [2]: < 100 nM

CC(C)(C)OC(=O)N[C@H]1CCCCCCC[C@@H]2C[C@@]2(C(=O)NS(=O)(=O)c2ccc(Cl)cc2)NC(=O)[C@@H]2C[C@@H](OC(=O)N3Cc4cccc(F)c4C3)CN2C1=O [Compound 604]
EC50 [1]: < 100 nM
IC50 [2]: < 100 nM

CS(=O)(=O)c1ccc(-c2csc(N[C@H]3CCCCC/C=C\[C@@H]4C[C@@]4(C(=O)NS(=O)(=O)C4CC4)NC(=O)[C@@H]4C[C@@H](OC(=O)N5Cc6cccc(F)c6C5)CN4C3=O)n2)cc1 [Compound 213]
EC50 [1]: < 100 nM
IC50 [2]: < 100 nM

O=C1N[C@]2(C(=O)NS(=O)(=O)C3CC3)C[C@H]2/C=C\CCCCC[C@H](Nc2nc(-c3ccc(F)cn3)cs2)C(=O)N2C[C@H](OC(=O)N3Cc4cccc(Cl)c4C3)C[C@@H]12 [Compound 228]
EC50 [1]: < 100 nM
IC50 [2]: < 100 nM

Cc1cnc(N[C@H]2CCCCC/C=C\[C@@H]3C[C@@]3(C(=O)NS(=O)(=O)C3CC3)NC(=O)[C@@H]3C[C@@H](OC(=O)N4Cc5cccc(F)c5C4)CN3C2=O)s1 [Compound 226]
EC50 [1]: < 100 nM
IC50 [2]: < 100 nM

CC(C)(C)OC(=O)N[C@H]1CCCCC/C=C\[C@@H]2C[C@@]2(C(=O)NS(=O)(=O)Cc2cc(C(F)(F)F)cc(C(F)(F)F)c2)NC(=O)[C@@H]2C[C@@H](OC(=O)N3Cc4cccc(F)c4C3)CN2C1=O [Compound 528]
EC50 [1]: 10000 to 50000 nM
IC50 [2]: < 100 nM

CN(C(=O)N[C@H]1CCCCC/C=C\[C@@H]2C[C@@]2(C(=O)NS(=O)(=O)c2ccccc2Cl)NC(=O)[C@@H]2C[C@@H](OC(=O)N3Cc4cccc(F)c4C3)CN2C1=O)C(C)(C)C [Compound 359]
EC50 [1]: < 100 nM
IC50 [2]: < 100 nM

CC(C)(C)COC(=O)N[C@H]1CCCCC/C=C\[C@@H]2C[C@@]2(C(=O)NS(=O)(=O)C2CC2)NC(=O)[C@@H]2C[C@@H](OC(=O)N3Cc4cccc(F)c4C3)CN2C1=O [Compound 406, (2R,6S,13aS,14aR,16aS,Z)-14a-(cyclopropylsulfonylcarbamoyl)-6-(neopentyloxycarbonylamino)-5,16-dioxo-1,2,3,5,6,7,8,9,10,11,13a,14,14a,15,16,16a-hexadecahydrocyclopropa[e]pyrrolo[1,2-a][1,4]diazacyclopentadecin-2-yl 4-fluoroisoindoline-2-carboxylate]
EC50 [1]: < 100 nM
IC50 [2]: < 100 nM

C[C@H](O)CONC(=O)[C@@]12C[C@H]1/C=C\CCCCC[C@H](NC(=O)OC(C)(C)C)C(=O)N1C[C@H](OC(=O)N3Cc4cccc(F)c4C3)C[C@H]1C(=O)N2 [Compound 110]
EC50 [1]: < 100 nM
IC50 [2]: < 100 nM

CC(C)(C)COC(=O)N[C@H]1CCCCC/C=C\[C@@H]2C[C@@]2(C(=O)NS(=O)(=O)c2cc(Cl)sc2Cl)NC(=O)[C@@H]2C[C@@H](OC(=O)N3Cc4cccc(F)c4C3)CN2C1=O [Compound 343]
EC50 [1]: < 100 nM
IC50 [2]: < 100 nM
